Laboratory results taken from patent US20260327211A1, “MODULATORS OF A POTASSIUM CHANNEL AND OF TRPV1 CHANNEL AND USES THEREOF” (Bsense Bio Therapeutics Ltd., priority 2023, published 2026).
Converted amounts (≈) assume the structure as drawn. “And” between values parts separate entries of the source, which are not always exact repeats. Equal values may be shown once. Read-outs that look alike come from different tables or passages of the source.

What was measured:
[1] = Human liver microsome metabolic stability; format: in vitro ADME; details: for microsomal CLint at 1 µM: read-out: HLM Clint; for half-life at 1 µM: human, liver microsomes, read-out: HLM T1/2
In short: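 Compound at 1 μM was incubated at 37 °C with pooled liver microsomes at 0.5 mg/mL and an NADPH regenerating system (about 1.0 mM). Samples were taken from 0 to 60 min, quenched in cold acetonitrile and quantified by LC-MS/MS against an internal standard. CLint was scaled with species liver weights (rat 40 g/kg, human 20 g/kg).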

[2] = target: T1, hKv7.2/3 (Homo sapiens, UniProt O43525+O43526); assay: Kv7.2/7.3 HCS, FLIPR potassium (thallium) assay, CHO/hKv7.2/3; format: cell-based
T1 construct: host or cells: CHO
In short: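 CHO cells stably expressing human Kv7.2/3, loaded with Tl+ indicator dye 1.5 h at room temperature in HBSS/HEPES with compound (0.2% DMSO). Channels activated by injection of 1 mM Tl2SO4 plus 5 mM K2SO4; fluorescence increase reflects Tl+ influx. EC50 from sigmoidal fit constrained to minimum 1, maximum ~3.6.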

[3] = Kinetic solubility; format: physicochemical; details: for solubility kinetic: hhbs buffer, aqueous buffer
Description: Solubility measurements were performed prior to each in vitro assay to ensure accurate dose response and reproducibility. Briefly, each compound was dissolved to 60 mM in DMSO and calibration curve was performed from 1.5-200 μM using absorbance spectra analysis and determination of λmax. Calibration curve served as the readout for all following assays. The 60 mM stock solution was used to make a 120 μM target concentration of 0.2% DMSO in the appropriate buffer of the in vitro related assay (i.e. HHBS buffer). Solubilized compounds were vortex for 10 minutes followed by centrifugation for 15 minutes in 5000 RPM and the supernatant was recovered for absorbance spectra analysis between 200-400 nm.

[4] = system: rat DRG neurons; assay: Rat DRG neurons, capsaicin-evoked action potential firing; format: cell-based; details: for IC50: capsaicin 1 μM, read-out: Rat DRGs, CAP IC50
Excerpt: rDRGs isolation and primary cell culture: Briefly, rat DRGs from all spinal levels were carefully removed and collected in HBSS on ices, connective tissue of the epineurium surrounding the ganglion was removed and cells were dissociated using Collagenase-II and trypsin dissociation solutions. DRGs were dissociated further, passed through glass Pasteur pipettes to obtain single cells. Then dissociation solution was changed to 5% FBS containing DRG neuronal culture medium and plated onto ECL coated 12 mm cover glass.
Additional rDRGs experiments were performed using Lonza primary neonatal rat (Sprague Dawley neonatal; P2,3) DRG neurons (R-DRG-505, Lonza) plated and cultured according to the manufacturer.
Electrophysiology: Cells were used for electrophysiological recording at least 48 hours following rDRG isolation or at least 5 days following cryopreserved rDRG thawing. Round small neurons (20-40 μm in diameter) were selected for electrophysiology recordings, to select for small nociceptive neurons that propagate pain sensation in vivo and that are expressing both Kv7.2/3 and TRPV1 targets. Membrane excitability was monitored using current clamp configuration of the whole-cell patch-clamp technique. Positive current steps of different amplitude were injected (400 ms) to induce spikes trains before and following compound application.
To assess the potency of compounds using DRG neurons, the inhibitory potency for CAP-evoked action potential (AP) trains was measured. For this purpose, DRG membrane potential was continuously measured, and the following protocol was performed:
Cells were perfused with vehicle containing bath solution. After 30 seconds, CAP (1 μM) was applied for 6 seconds to activate TRPV1 and stimulate AP trains.
After 30 seconds of perfusion with bath solution containing only vehicle, perfusion was changed to a bath solution containing compound, and after 3 minutes of compound application, CAP (1 μM) was applied again for 6 seconds to activate TRPV1 and stimulate AP trains.
Cells perfusion was changed back to bath solution containing only vehicle and after 3 minutes of compound washout, CAP (1 μM) was applied again for 6 seconds to activate TRPV1 and stimulate AP trains.
To evaluate the drug/control response, the number of AP spikes induced by CAP following incubation with test compound was divided by the average number of control AP spikes induced without compound, before compound incubation, and following its washout.

[5] = Table 1, read-out: Kv7.2/7.3 IC50
[6] = Table 1, read-out: Kinetic Sol.
[7] = Tables 4 and 11, read-out: Kinetic Sol.

T1 sequence (O43525 whole entry): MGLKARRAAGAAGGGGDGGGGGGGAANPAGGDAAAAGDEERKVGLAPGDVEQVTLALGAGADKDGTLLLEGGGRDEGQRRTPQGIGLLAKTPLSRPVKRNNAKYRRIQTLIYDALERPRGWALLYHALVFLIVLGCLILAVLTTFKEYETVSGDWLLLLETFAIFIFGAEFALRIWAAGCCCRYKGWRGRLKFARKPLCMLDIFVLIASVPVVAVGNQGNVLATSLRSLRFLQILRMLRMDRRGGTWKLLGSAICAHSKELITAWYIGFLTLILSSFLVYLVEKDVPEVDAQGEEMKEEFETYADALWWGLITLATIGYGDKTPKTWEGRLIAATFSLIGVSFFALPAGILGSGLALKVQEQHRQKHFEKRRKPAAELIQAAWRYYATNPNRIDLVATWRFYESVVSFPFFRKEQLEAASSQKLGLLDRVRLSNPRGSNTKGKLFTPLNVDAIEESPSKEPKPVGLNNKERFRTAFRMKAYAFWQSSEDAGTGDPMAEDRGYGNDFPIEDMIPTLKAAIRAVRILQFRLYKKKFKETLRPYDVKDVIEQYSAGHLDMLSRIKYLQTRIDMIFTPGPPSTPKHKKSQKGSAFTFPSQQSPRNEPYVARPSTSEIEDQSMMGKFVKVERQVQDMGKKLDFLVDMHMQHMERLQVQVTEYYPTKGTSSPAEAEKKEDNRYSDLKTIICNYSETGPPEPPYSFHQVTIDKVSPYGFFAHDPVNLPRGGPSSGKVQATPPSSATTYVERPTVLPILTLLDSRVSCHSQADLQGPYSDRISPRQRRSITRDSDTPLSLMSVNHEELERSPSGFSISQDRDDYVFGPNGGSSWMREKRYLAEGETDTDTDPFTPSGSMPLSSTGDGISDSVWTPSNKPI
T1 sequence (O43526 whole entry): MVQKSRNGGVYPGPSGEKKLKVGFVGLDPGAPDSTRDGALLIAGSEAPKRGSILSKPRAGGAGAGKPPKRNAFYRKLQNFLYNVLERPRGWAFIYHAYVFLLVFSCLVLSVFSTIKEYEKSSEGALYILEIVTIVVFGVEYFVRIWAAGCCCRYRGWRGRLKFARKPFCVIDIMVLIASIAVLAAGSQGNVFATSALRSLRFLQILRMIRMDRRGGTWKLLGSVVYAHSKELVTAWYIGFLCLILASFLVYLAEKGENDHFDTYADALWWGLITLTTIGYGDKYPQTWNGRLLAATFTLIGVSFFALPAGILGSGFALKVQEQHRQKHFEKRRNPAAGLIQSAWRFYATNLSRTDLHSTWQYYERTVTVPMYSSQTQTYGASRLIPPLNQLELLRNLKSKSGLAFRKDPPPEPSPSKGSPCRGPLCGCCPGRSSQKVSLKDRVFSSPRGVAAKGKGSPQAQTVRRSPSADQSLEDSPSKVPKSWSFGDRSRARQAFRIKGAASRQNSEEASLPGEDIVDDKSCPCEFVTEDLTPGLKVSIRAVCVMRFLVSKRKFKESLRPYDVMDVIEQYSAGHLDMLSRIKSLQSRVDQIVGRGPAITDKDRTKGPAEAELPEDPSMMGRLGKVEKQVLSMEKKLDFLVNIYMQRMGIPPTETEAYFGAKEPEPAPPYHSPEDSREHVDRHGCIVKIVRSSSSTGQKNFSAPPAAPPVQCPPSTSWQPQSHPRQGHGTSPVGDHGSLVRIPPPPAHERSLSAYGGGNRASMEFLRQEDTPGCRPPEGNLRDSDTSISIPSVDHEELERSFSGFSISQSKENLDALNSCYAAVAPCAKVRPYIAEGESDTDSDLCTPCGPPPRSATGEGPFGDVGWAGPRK

SMILES	microsomal CLint at 1 µM ([1]; human liver microsomes) [µL/min/mg]	EC50 [2, 5] [nM]	solubility kinetic [3, 6] [µM]	EC50 ([2]; read-out: Kv7.2/7.3 EC50) [nM]	IC50 [4]	half-life at 1 µM ([1]; human liver microsomes) [min]	solubility kinetic [3, 7] [µM]	HLM and/or Rat PK clearance rates compared to compound 661 [1]	further results
COC[C@@H](CO)NC(=O)Cc1cc(Sc2c(Cl)cc(F)cc2C(C)C)ccc1F [Compound 415]	839	2200	26.7 (≈ 11.9 µg/mL)						
CC(C)c1cc(Cl)cc(Cl)c1C(=O)c1ccc(F)c(CC(=O)NCC(C)(C)O)c1 [Compound 417-4]	91.8	13400	66 (≈ 29.1 µg/mL)						
Cc1cn(-c2ccc(F)c(CC(=O)NCC(C)(C)O)c2)c2c(Cl)cc(Cl)cc12 [Compound 421-6]		1100		2100	< 100 nM				HLM Clint ([1]; human liver microsomes, 1 µM): 55.5 µL/min/mg; Inhibition of capsaicin induced AP response ([4]; 100 nM): 63.4±17.8%; Inhibition of capsaicin induced AP response ([4]; 500 nM): 86.5±8.4%; Inhibition of AP response to capsaicin ([4]; 2 μM): 97.9±2.1%; Kinetic Sol. ([3]; Table 1): 3.4
Cc1cn(-c2ccc(F)c(CC(=O)NCC(C)(C)O)c2)c2c(Cl)cc(Cl)cc12 [Compound 421]					25 nM	25	3400 (≈ 1440 µg/mL)		CLint scaled at 1 µM ([1]; human liver microsomes): 50 mL/min/kg; EC50 ([2]; read-out: hKv7.2/3 EC50 HCS): 824 nM; IC50 ([4]; listed as BS421): 25 nM
O=C(Cc1cc(-n2cc(Cl)c3cc(Cl)cc(Cl)c32)ccc1F)NCCO [Compound 627]		540		500	0.1 nM				Kv7.2/3 activation (words) [2]: significant hKv7.2/3 activation even at picomolar concentrations; activation at 0.01 µM ([2]; 10 nM range): ~30%; Inhibition of capsaicin-evoked action potential firing ([4]; 0.1 nM): about 50%; Inhibition of capsaicin-evoked action potential firing ([4]; 1 nM): completely blocked
O=C(Cc1cncc(-n2cc(Cl)c3cc(Cl)cc(Cl)c32)c1)N[C@@H]1COC[C@H]1O [Compound 661]	72	1100	40 (≈ 17.6 µg/mL)		0.003 nM and 0.002 nM and < 0.003 nM	19.2	37000 (≈ 16300 µg/mL)		CLint scaled at 1 µM ([1]; human liver microsomes): 64.8 mL/min/kg; HLM T1/2 ([1]; human liver microsomes, 1 µM): 19.3 min; Kv7.2/3 activation (words) [2]: partial yet potent facilitation of Kv7.2/3 activity; Emax ([2]; read-out: Kv7.2/3 maximal opening vs. control): 21%; EC50 ([2]; read-out: hKv7.2/3 EC50 HCS): 0.001 nM; IC50 ([4]; listed as BS661): 0.002 nM
O=C(Cc1nccc(-n2cc(Cl)c3cc(Cl)cc(Cl)c32)n1)NC1COCC1O (centres unmarked) [Compound 760]					0.23 nM		57000 (≈ 25200 µg/mL)	improved HLM and/or Rat PK clearance rates compared to compound 661	Inhibition of capsaicin-evoked action potential firing ([4]; 1 nM): about 90%; solubility kinetic ([3]; read-out: Kinetic solubility): 57 µM (≈ 25.2 µg/mL)
O=C(Cc1ccnc(-n2cc(Cl)c3cc(Cl)cc(Cl)c32)n1)N[C@@H]1COC[C@H]1O [Compound 820]						33.8		improved HLM and/or Rat PK clearance rates compared to compound 661	
O=C(Cc1cc(-n2cc(C(F)(F)F)c3cc(Cl)cc(Cl)c32)ncn1)NCCO [Compound 843]						> 145		improved HLM and/or Rat PK clearance rates compared to compound 661	
CC(C)c1cc(Cl)cc(Cl)c1Nc1ccc(F)c(CC(=O)NCC(C)(C)O)c1 [NH91, reference compound]				700	500 nM	7.4			solubility kinetic ([3]; Kinetic Sol., Tables 4 and 11): 20 µM (≈ 8.55 µg/mL); solubility kinetic ([3]; read-out: Kinetic solubility): 20 µM (≈ 8.55 µg/mL)
